Data published in paper PMC8312610, “F4, a collagen XIX-derived peptide, inhibits tumor angiogenesis through αvβ3 and α5β1 integrin interaction” (Cell Adhesion & Migration, 2021).
Positions of bridges follow the written chain, without caps; N, C: chain ends. No end group written: not given here.

Tests used:
[1] = test system: Sprague Dawley rat aortic rings; experiment: Ex vivo rat aortic ring assay (endothelial cell outgrowth); type: cell-based
Procedure: Figure 3. NC1(XIX) and F4 inhibit endothelial cell ex vivo migration. Rat aortic rings were embedded in Matrigel in 24 well-plate and then incubated with or without 40 μM NC1(XIX) or F4 for 14 days. Micro-vessel outgrowth was observed under an inverted microscope after 14 days and photographed (a). Cell outgrowth from the tissue explant was measured using a home-made macro based on ImageJ analysis software. The results are presented as mean ± SD (n = 5 replicates) (b). The experiment was repeated twice (N = 2)
The ex vivo rat aortic ring assay was adapted from Baker et al.. Thoracic aorta was dissected from Sprague Dawley rat and stored in Opti-MEM (ThermoFisher, ref 31985062) supplemented with 1% penicillin/streptomycin in a Petri dish. Aorta was then cut into 0.5 mm rings that were incubated in Opti-MEM overnight at +37°C in a Petri dish. Matrigel (7 mg/mL) was loaded in 24-well plate and allowed to polymerize at +37°C for 30 min. The rings were carefully transferred from the Petri dish onto the Matrigel coated wells and were completely embedded by addition of Matrigel. The plate was incubated at +37°C for 30 min. Opti-MEM supplemented with 30 ng/mL VEGF with or without 40 μM NC1(XIX) or F4 was added. Plate was incubated at +37°C in a humid atmosphere containing 5% CO2 for 14 days. The supplemented culture medium was changed every 3 days. Rings were imaged under an inverted light microscope at 14 days. Quantitative evaluation of the angiogenic sprouting was determined by measuring the number of endothelial cell outgrowth from the primary tissue explant using a homemade macro based on ImageJ analysis software. The first step consisted in the semi-automatic selection of aortic ring shape at day 0 by manual threshold allowing the design of a top hat filter to obtain a relevant mask of this structure. The mask was then substracted from day 14 image to keep only outgrowing cells. The second step consisted in a manual threshold and the use of ‘Analyze Particules’ tool involving size criteria. The total cell number of cell outgrowing from the ring was determined.

α5β1 integrin = experiment: Solid phase competition assay with biotinylated-F4, α5β1; type: binding, human; conditions: unlabeled F4, molar ratio 1/0 to 1/125, integrin coated at 26 × 10^−7 mol/L, 90 min, room temperature, N = 2
From the text: Figure 5. F4 directly binds to αvβ3 and α5β1 integrins. Direct interaction between αvβ3 or α5β1 integrin and F4 was studied using solid phase assays as described in the material and method section. The F4 peptide was biotinylated to allow its detection using the streptavidin-peroxidase complex. Different conditions were used. (a-b) The amounts of coated αvβ3 (a) or α5β1 integrin (b) were increased while biotinylated F4 peptide was kept constant. (c-d) The concentration of biotinylated F4 peptide was increased while coated amounts of αvβ3 (c) or α5β1 (d) integrins were kept constant. (e-f) Competitive assays were performed using increasing concentrations of F4 peptide while biotinylated-F4 peptide and αvβ3 (e) or α5β1 (f) integrins were kept constant. The solid phase assays were repeated twice (N = 2; n = 2)
Wells of a 96-well plate were coated with α5β1 (ref. 3230-A5-050, R&D systems) and/or αvβ3 integrin (ref. 3050-AV-050, R&D systems) at different concentrations ranging from 26 × 10^−7 mol/L to 0.1 × 10^−7 mol/L (100 μL per well in PBS). The 96-well plate was left overnight at room temperature. The coating was then blocked with TBS containing 5% nonfat dry milk, 1 mM MgCl2 and 1 mM CaCl2 for 2 h at room temperature. […] The intensity of the yellow coloration was measured at 450 nm with an LB940 spectrophotometer (Berthold Technologies). […]

melanoma cell = conditions: cited from earlier work
From the text: (§1) The aim of the present work was to study the anti-angiogenic properties of F4 peptide. […] By affinity chromatography, we identified αvβ3 and α5β1 integrins as potential receptors for F4 peptide on endothelial cell surface. Using solid phase assays, ... || Type XIX collagen, that belongs to the FACIT family (Fibril-Associated Collagens with Interrupted Triple helices), is a minor collagen associated to the basement membrane zone.

mouse melanoma model = conditions: previously demonstrated by the authors, no ref in abstract; cited from earlier work
From the text: as §1

tumor cell = test system: tumor cell; parameters: method as in PMID 26621838; conditions: in vitro; ref [36]; cited from earlier work

CNPEDCLYPVSHAHQR (disulfide 1-6 (inferred)) [F4, collagen XIX-derived peptide, released by plasmin from type XIX collagen]
cell outgrowth, F4 compared with NC1(XIX) ([1]; 40 μM, 14 days, Opti-MEM with 30 ng/mL VEGF): even stronger than NC1(XIX) effect
change of cell outgrowth from aortic ring vs control ([1]; 40 μM, 14 days, Opti-MEM with 30 ng/mL VEGF, Matrigel, mean ± SD (n = 5), N = 2, p < 0.01 NC1(XIX), p < 0.001 F4): −78%
anti-angiogenic effect on aortic endothelial sprouting, F4 compared with NC1(XIX) (discussion) ([1]; ex vivo): even greater than the whole NC1(XIX) domain
inhibition of endothelial sprouting ([1]; rat aortic ring assay (abstract)): endothelial sprouting in a rat aortic ring assay
competition with biotinylated-F4 binding to α5β1 (α5β1 integrin): decreased consequently
melanoma cell migration (melanoma cell; in vitro, previously demonstrated by the authors, no ref in abstract): able to inhibit melanoma cell migration
melanoma cell migration, compared with NC1(XIX) domain (melanoma cell; ref [24]): reproduced the whole NC1(XIX) domain effect on melanoma cell migration
cancer progression in mouse melanoma model (mouse melanoma model): cancer progression in a mouse melanoma model
tumor cell migration (tumor cell): inhibits in vitro tumor cell migration
